We go through 18 compounds from PubChem BioAssay (NCI).

Each structure is given as a SMILES string. Several values for one entry are separate records, joined by “and”; a condition that tells them apart may be missing. Equal entries are not always repeated.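 Dose response: 5 concentrations. Exposure: 48 h. Format: 96-well plates. Endpoint: linear interpolation; highest concentration if not reached. Here, GI50 denotes the concentration required for 50% inhibition of growth. TGI denotes the concentration required for complete inhibition of growth.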

Experiment in all cases: NCI anticancer screen, dose series, 48 h
In experiment [1] the test system is HT29 colon.
Experiment [2] relates to COLO 205 colon.
Experiment [3] concerns SF-268 CNS.
Experiment [4] concerns CAKI-1 renal.
In experiment [5] the test system is SF-295 CNS.
Experiment [6] concerns EKVX NSCLC.
In experiment [7] the test system is HS 578T breast.
For experiment [8], the system named is NCI-H460 lung.
For experiment [9], the system named is MOLT-4 leukemia.
The subject of experiment [10] is HOP-92 NSCLC.
Experiment [11] deals with MALME-3M melanoma.

For `Clc1nc(Cl)nc(NC23CC4CC(CC(C4)C2)C3)n1`, the TGI in experiment [1] was 37.9 µM; in [2], 35.5 µM; in experiment [3], 38.2 µM; in [4], 21.7 µM; in experiment [5], 45.9 µM; in [6], 37.4 µM. In addition, the TGI turned out to be 28.9 µM in experiment [7]; 60.4 µM in experiment [8]; 51.2 µM in [9]; 35.5 µM in experiment [10]; 30.5 µM in experiment [11].
As to `CC(=O)C(CN1CCCCC1)C(c1ccccc1)c1c(O)c2ccccc2oc1=O` (configuration not stated), the TGI in experiment [1], in [2], in experiment [3], in experiment [4], in experiment [5] and in [6] was over 100 µM each time. Further, the TGI in [7], in experiment [8], in experiment [9], in experiment [10] and in [11] was over 100 µM throughout.
Take `CCOC(=O)c1cc(=C2\CCN(CC(C)CC)C2=S)/c(=C(/O)CC)[nH]1` (configuration not stated): the TGI in experiment [1] was determined as 48 µM; in [2] it was 24.1 µM; in experiment [3] it was 46.3 µM; in experiment [4], 26.4 µM; in experiment [5] it was 34.4 µM; in [6], 35.3 µM. In addition, the TGI in experiment [7] came out at 59.6 µM; in experiment [8] it was 40.8 µM; in [9] it was 24.6 µM; in experiment [10], 39.6 µM; in experiment [11] it was 23.3 µM.
As for `N#Cc1c(N)[nH]c(=S)c(C#N)c1-c1cccc(Cl)c1`, the TGI in experiment [1] was over 100 µM; in experiment [2], 40.9 µM; in experiment [3], 56.1 µM; in [4], over 100 µM; in experiment [5], over 100 µM; in [6], 97.9 µM. The TGI was 94.1 µM in experiment [7]; over 100 µM in experiment [8]; 57.8 µM in [9]; over 100 µM in [10]; over 100 µM in [11].
On to `COc1ccc(N2C(=O)C3c4[nH]c5ccc([N+](=O)[O-])cc5c4C4CCC(C(C)(C)C)CC4C3C2=O)cc1` (configuration not stated), for which the TGI in experiment [1] was 20.1 µM; in [2], 69.6 µM; in experiment [3] it was over 100 µM; in experiment [4], over 100 µM; in experiment [5], over 100 µM; in [6] it was over 100 µM. In addition, the TGI is over 100 µM in [7]; 63.9 µM in experiment [8]; over 100 µM in experiment [9]; 45.7 µM in [10]; over 100 µM in experiment [11].
As to `COc1ncc(C=C(C#N)C#N)c(OC)n1`, the TGI in experiment [1], in experiment [2], in [3], in experiment [4], in experiment [5] and in [6] was over 100 µM in each case. Also, the TGI in experiment [7], in experiment [8], in experiment [9], in experiment [10] and in experiment [11] was over 100 µM in each case.
`CC(C)=CCN1CC(C)C(=O)Nc2cc(Cl)ccc21` (configuration not stated): the TGI in experiment [1] was 38.3 µM; in experiment [2], 41.9 µM; in experiment [3], over 100 µM; in experiment [4] it was 55.5 µM; in [5] it was over 100 µM; in experiment [6] it was 94.8 µM. Besides, the TGI in [7] is over 100 µM; in experiment [8], 40.7 µM; in experiment [9], over 100 µM; in [10] it was 29 µM; in experiment [11], 62.3 µM.
In the case of `COc1ccc(Nc2[nH]c(C(C)=O)c(N)c2C(=S)Nc2ccccc2)cc1`, the TGI is over 100 µM in experiment [1]; 48.1 µM in experiment [2]; over 100 µM in experiment [3]; over 100 µM in experiment [4]; over 100 µM in experiment [5]; over 100 µM in experiment [6]. The TGI in experiment [7], in experiment [8], in experiment [9], in experiment [10] and in experiment [11] was over 100 µM in each case.
Regarding `Cc1c(Cl)ccc2c(=O)c3cccc(CC(=O)O)c3oc12`, the TGI in experiment [1], in experiment [2], in experiment [3], in experiment [4], in experiment [5] and in [6] was over 100 µM each time. Further, the TGI in [7], in [8], in experiment [9], in experiment [10] and in [11] was over 100 µM in each case.
For the compound `Cc1c(/C=N\NC(=S)N2CCN(C(=S)N/N=C\c3c(C)n(C)n(-c4ccccc4)c3=O)CC2)c(=O)n(-c2ccccc2)n1C`, the TGI in experiment [1] is 34.9 µM; in experiment [2], over 100 µM; in experiment [3] it was over 100 µM; in [4], over 100 µM; in experiment [5], over 100 µM; in [6], over 100 µM. Also, the TGI in experiment [7], in [8], in experiment [9], in experiment [10] and in experiment [11] was over 100 µM each time.
`COc1ccc(-c2c(C#N)c(S)n(C3OC(COC(C)=O)C(OC(C)=O)C(OC(C)=O)C3OC(C)=O)c(=O)c2C#N)cc1` (configuration not stated): the TGI in [1] was over 100 µM; in experiment [2], over 100 µM; in experiment [3], over 100 µM; in experiment [4] it was 56.4 µM and 98.8 µM; in experiment [5], over 100 µM; in experiment [6], over 100 µM. Also, the TGI in experiment [7] is 93.7 µM and 95.5 µM; in experiment [8], over 100 µM; in experiment [9], over 100 µM; in experiment [10], 67 µM and 53.5 µM; in experiment [11], over 100 µM. Further, the GI50 in experiment [2] is > 100 µM and 40.7 µM; in [5], 36.1 µM and 87.1 µM; in experiment [9] it was > 100 µM and 39.2 µM; in experiment [11], 77.1 µM and 37.7 µM.
On to `C=CC(=O)c1ccc2c(c1)OCCOCCOCCOCCOCCO2`, for which the TGI in experiment [1] is over 56.5 µM; in experiment [2], 33 µM; in [3], over 92.8 µM; in [4] it was 68 µM; in experiment [5], over 100 µM; in experiment [6], 57.9 µM. In addition, the TGI in [7] is over 100 µM; in experiment [8], over 100 µM; in experiment [9], over 100 µM; in [10] it was 33.5 µM; in experiment [11], 33.6 µM.
Regarding `Nc1nc2ncc(SCc3ccc(C(=O)NC(CCC(=O)O)C(=O)O)cc3)cc2c(=O)[nH]1` (configuration not stated), the TGI in experiment [1], in experiment [2], in experiment [3], in experiment [4], in experiment [5] and in experiment [6] was over 100 µM throughout. Further, the TGI in experiment [7], in [8], in experiment [9], in experiment [10] and in experiment [11] was over 100 µM each time.
As to `N#C/C(=C\NC(=S)Nc1ccc(S(=O)(=O)Nc2ccccn2)cc1)C(N)=O`, the TGI in experiment [1], in experiment [2], in [3], in [4], in [5] and in experiment [6] was over 100 µM throughout. Further, the TGI in experiment [7], in [8], in [9], in experiment [10] and in experiment [11] was over 100 µM each time.
As to `C[C@]12OC[C@H](c3ccccc3)N1C(=O)C1[C@H]2CC12SCCS2` (some centres not stated), the TGI in experiment [1], in experiment [2], in [3], in experiment [4], in [5] and in experiment [6] was over 100 µM each time. The TGI in experiment [7], in [8], in experiment [9], in experiment [10] and in experiment [11] was over 100 µM in each case.
Take `COC(=O)C1=C(C(=O)OC)C2OC1C1C2C2(C)C(C)=C(C)C1(C)S2=O` (configuration not stated): the TGI in [1] is over 49.9 µM; in experiment [2], 13.8 µM; in [3], 28.9 µM; in [4], 27 µM; in experiment [5], over 84.8 µM; in [6], 27.6 µM. The TGI is 51.4 µM in [7]; 36.3 µM in experiment [8]; over 100 µM in experiment [9]; 32.7 µM in experiment [10]; 20.9 µM in [11].
Regarding `CCOC(=O)CCC(NC(=O)c1ccc(OCc2nc3cc(C(F)(F)F)ccc3nc2-c2ccccc2)cc1)C(=O)OCC` (configuration not stated), the TGI is over 100 µM in experiment [1]; 32.3 µM in experiment [2]; over 100 µM in experiment [3]; over 100 µM in experiment [4]; over 100 µM in [5]; over 100 µM in experiment [6]. Also, the TGI in experiment [7], in experiment [8], in [9], in experiment [10] and in experiment [11] was over 100 µM in each case.
Take `O=C(/C(=C(/Br)I)c1ccccc1)c1ccccc1`: the TGI in experiment [1] was 36.1 µM; in [2] it was 36.5 µM; in experiment [3], 48.5 µM; in experiment [4], over 100 µM; in experiment [5] it was 69.6 µM; in [6], 89.1 µM. Further, the TGI is over 100 µM in experiment [7]; 37.2 µM in [8]; 46.2 µM in experiment [9]; 35.6 µM in [10]; 33.2 µM in experiment [11].
